# In US12521356B2, “Compositions and methods for treating pain, inflammation, infection, malaria, and sepsis” (Duke University, priority 2018, dated 2026):
# How the values were obtained:
# [1] = tested on: GPR37; experiment: Ca2+ imaging (Fluo-4AM) in peritoneal macrophages (pMΦ) from WT and Gpr37−/− mice; type: cell-based, mouse; conditions: 30 nM; Gpr37-deficient pMΦ
# Description: Peritoneal macrophage culture. Peritoneal macrophages were collected by peritoneal lavage with 10 ml warm PBS containing of 1 mM EDTA. Cells were incubated in DMEM supplemented with 10% FBS at 37° C. for 2 h in petri dish and washed with PBS to eliminate non-adherent cells. The adherent cells were used as peritoneal macrophages. Peritoneal macrophages were used after 3 days of culture.
# (§1) Calcium imaging. HEK 293 cells, with or without transfection of Gpr37, GPR32, ChemR23 or ALX1 cDNA, were loaded with 5 μM Fura-2AM (Invitrogen) for 1 hour and then were resuspended in normal external buffer (140 NaCl, 5 KCl, 2 CaCl2, 2 MgCl2, 10 HEPES, in mM, titrated to pH 7.4 with NaOH) or external Ca^2+-free buffer (140 NaCl, 2 MgCl2, 5 EGTA, 10 HEPES, in mM, titrated to pH 7.4 with NaOH). Peritoneal macrophages, collected from WT and Gpr37 KO mice, were loaded with 5 μM […] (Invitrogen) for 1 hour and then were resuspended in normal external buffer. Images of the HEK 293 cells and macrophages with the excitation wavelength of 340 nm and 380 nm were captured with a cooled Digital CMOS camera (ORCA-Flash 4.0, Hamamatsu Photonics K.K, Japan). The ratio of fluorescence intensity of the two wavelengths in each experiment was analyzed using MetaFluor (Molecular Devices). The Shutter speed and wavelength was controlled by Lambda DG-4 system (Sutter instrument Co., Novato, CA). Values from each of the experiments were normalized to the baseline ratio of 340/380 nm.
# Next, we conducted GPR37-mediated Ca^2+ imaging in native pMΦ from WT and Gpr37^−/− mice using Fluo-4AM as a Ca^2+ indicator, since this dye works better than Fura-2AM for pMΦ. […] As compared to iCa^2+ increase in GPR37-expressing HEK293 cells, NPD1 trigger a slow-onset but more persistent Ca^2+ response in pMΦ (FIG. 2B and FIG. 2G). A relatively rapid calcium response in HEK293 cells may result from over-expression of GPR37. A sustained iCa^2+ increase in pMΦ may result from the expression of transient receptor potential (TRP) ion channels in these immune cells. It is noteworthy that macrophages express TRPV2 or TRPM2, which are involved in phagocytosis during bacterial infection. […] NPD1-triggered iCa^2+ increase in pMΦ is also Gi-dependent, since PTX blocked this increase (FIG. 2H). For comparison, ATP-evoked iCa^2+ increase was not altered in GPR37-deficient pMΦ (FIG. 2H).
# [2] = biological target: T1, GPR32 (Homo sapiens, UniProt O75388); experiment: Ca2+ imaging (Fura-2AM) in HEK293 cells transfected with GPR32 cDNA; type: cell-based; conditions: HEK293 cells expressing GPR32; RvD1 100 nM
# T1 construct: host or cells: HEK293 flip-in cells
# From the text: (§2) FIG. 10A-FIG. 10C. Characterization of intracellular Ca^2+ changes in HEK293 cells expressing ChemR23, GPR32, and ALX. Ca^2+ imaging with Fura-2AM indicator showing iCa^2+ levels in HEK293 cells transfected with ChemR23 (FIG. 10A), GPR32 (FIG. 10B), and ALX (FIG. 10C) cDNAs. Note that NPD1 fails to elicit iCa^2+ increase in HEK293 cells expressing ChemR23, GPR32, and ALX. […] ATP is included as a positive control. *P<0.05, compared with baseline n=44˜97 cells from 3 cultures. All the data are expressed as mean±s.e.m.
# (§3) HEK cell culture and transfection. HEK293 flip-in cell line was purchased from Duke Cell Culture Facility. Cells were cultured in high glucose (4.5 g/L) Dulbecco's Modified Eagle's Medium containing 10% (v/v) fetal bovine serum (Gibco). Transfection (2 μg cDNA) was performed with Lonza electroporation (Lonza) at 70% confluency and the transfected cells were cultured in the same growth medium for 48 h before use. The hGPR37-V5 pLenti304 plasmids were obtained from DNASU (Tempe, AZ), and hGPR32, hChemR23 and hALX pcDNA3 plasmids were provided by Dr. Serhan from Harvard Medical School, Boston.
# as §1, with “Values from each of the experiments were normalized to the baseline ratio of 340/380 nm.” left out
# [3] = biological target: T2, ALX (Homo sapiens, UniProt P25090); experiment: Ca2+ imaging (Fura-2AM) in HEK293 cells transfected with ALX cDNA; type: cell-based; conditions: HEK293 cells expressing ALX
# T2 construct: host or cells: HEK293 flip-in cells
# T2 sequence (P25090 1-351): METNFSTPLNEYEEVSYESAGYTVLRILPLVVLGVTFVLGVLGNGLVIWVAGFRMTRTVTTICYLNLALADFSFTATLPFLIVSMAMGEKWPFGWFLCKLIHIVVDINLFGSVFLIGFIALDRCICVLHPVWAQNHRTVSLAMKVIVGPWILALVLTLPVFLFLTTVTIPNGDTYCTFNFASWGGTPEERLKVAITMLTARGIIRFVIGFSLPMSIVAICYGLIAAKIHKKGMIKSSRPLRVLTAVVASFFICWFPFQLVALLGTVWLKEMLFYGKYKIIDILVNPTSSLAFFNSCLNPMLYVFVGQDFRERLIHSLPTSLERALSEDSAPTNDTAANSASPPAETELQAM
# From the text: as §2, §3, §1
# Several SPM receptors have been identified such as ChemR23 for RvE1, GPR32 for RvD1, and ALX for lipoxin A. We transfected human cDNAs of ChemR23, GPR32, and ALX in HEK293 cells and checked Ca^2+ responses following the treatment of each SPM.
# [4] = biological target: T3, ChemR23 (Homo sapiens, UniProt Q99788); experiment: Ca2+ imaging (Fura-2AM) in HEK293 cells transfected with ChemR23 cDNA; type: cell-based; conditions: HEK293 cells expressing ChemR23; RvE1 100 nM
# T3 construct: host or cells: HEK293 flip-in cells
# T3 sequence (Q99788 1-373): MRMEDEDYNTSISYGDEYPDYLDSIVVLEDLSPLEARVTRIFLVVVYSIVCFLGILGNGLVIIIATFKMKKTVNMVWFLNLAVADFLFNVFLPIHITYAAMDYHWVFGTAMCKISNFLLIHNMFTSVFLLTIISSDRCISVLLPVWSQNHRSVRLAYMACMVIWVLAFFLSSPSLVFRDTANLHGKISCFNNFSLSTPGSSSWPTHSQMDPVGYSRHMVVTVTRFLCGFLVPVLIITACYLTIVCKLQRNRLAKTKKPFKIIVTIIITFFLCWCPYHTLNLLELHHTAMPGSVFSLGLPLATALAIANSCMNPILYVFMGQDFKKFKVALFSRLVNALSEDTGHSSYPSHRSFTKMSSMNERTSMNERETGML
# From the text: as §2, §3
# as §1, with “Values from each of the experiments were normalized to the baseline ratio of 340/380 nm.” left out
# T1 sequence (O75388 whole entry): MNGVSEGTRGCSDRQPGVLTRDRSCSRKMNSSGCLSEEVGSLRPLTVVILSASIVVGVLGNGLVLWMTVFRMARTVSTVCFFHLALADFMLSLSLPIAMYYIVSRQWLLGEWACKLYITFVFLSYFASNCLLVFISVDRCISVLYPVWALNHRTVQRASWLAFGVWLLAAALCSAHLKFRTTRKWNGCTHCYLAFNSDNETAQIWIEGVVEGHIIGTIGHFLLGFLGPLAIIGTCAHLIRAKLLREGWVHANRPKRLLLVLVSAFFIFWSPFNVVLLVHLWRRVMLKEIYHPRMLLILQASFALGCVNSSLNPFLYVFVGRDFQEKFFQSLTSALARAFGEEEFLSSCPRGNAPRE
Structure (SMILES),iCa2+ increase [1],iCa2+ increase / Ca2+ response [2],iCa2+ increase / Ca2+ response [3],iCa2+ increase / Ca2+ response [4]
"CC/C=C\C[C@H](O)\C=C/C=C/C=C/[C@H](O)C/C=C\C/C=C\CCC(=O)O [NPD1, neuroprotectin D1]",abolished,failed to elicit iCa^2+ increase,failed to elicit iCa^2+ increase,failed to elicit iCa^2+ increase
CC[C@@H](O)/C=C/C=C\C[C@@H](O)/C=C/C=C/C=C\[C@@H](O)CCCC(=O)O [RvE1],,,,failed to evoke Ca^2+ responses
CC/C=C\C[C@H](O)/C=C/C=C\C=C\C=C\[C@@H](O)[C@@H](O)C/C=C\CCC(=O)O [RvD1],,failed to evoke Ca^2+ responses,,
